According to ChEMBL document CHEMBL1130746, “Naphthalenebis[alpha,alpha-difluoromethylenephosphonates] as potent inhibitors of protein tyrosine phosphatases” (Bioorg Med Chem Lett, 1998):

Experiments:
[1] = biological target: T1, Tyrosine-protein phosphatase non-receptor type 1 (Homo sapiens, UniProt P18031); assay: Compound was evaluated for inhibitory constant against PTP1B
T1 sequence (P18031 whole entry): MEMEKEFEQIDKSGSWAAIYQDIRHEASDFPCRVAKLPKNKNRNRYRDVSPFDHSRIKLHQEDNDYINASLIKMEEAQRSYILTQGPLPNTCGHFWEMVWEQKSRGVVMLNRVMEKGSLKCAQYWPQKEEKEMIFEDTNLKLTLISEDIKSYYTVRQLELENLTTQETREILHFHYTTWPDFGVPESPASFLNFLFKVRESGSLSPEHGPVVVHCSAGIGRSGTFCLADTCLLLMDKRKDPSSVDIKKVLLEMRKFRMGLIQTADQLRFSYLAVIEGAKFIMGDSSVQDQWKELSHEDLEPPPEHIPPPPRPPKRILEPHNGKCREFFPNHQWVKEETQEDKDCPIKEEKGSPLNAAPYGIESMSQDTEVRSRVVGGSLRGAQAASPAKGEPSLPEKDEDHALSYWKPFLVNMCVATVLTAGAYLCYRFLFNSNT

[2] = biological target: T1, Tyrosine-protein phosphatase non-receptor type 1; assay: Compound was evaluated for 50% inhibition of PTP1B using uM)
[3] = biological target: T2, Receptor-type tyrosine-protein phosphatase C (Homo sapiens, UniProt P08575); assay: Compound was evaluated for 50% inhibition of CD45 using uM)
T2 sequence (P08575 whole entry): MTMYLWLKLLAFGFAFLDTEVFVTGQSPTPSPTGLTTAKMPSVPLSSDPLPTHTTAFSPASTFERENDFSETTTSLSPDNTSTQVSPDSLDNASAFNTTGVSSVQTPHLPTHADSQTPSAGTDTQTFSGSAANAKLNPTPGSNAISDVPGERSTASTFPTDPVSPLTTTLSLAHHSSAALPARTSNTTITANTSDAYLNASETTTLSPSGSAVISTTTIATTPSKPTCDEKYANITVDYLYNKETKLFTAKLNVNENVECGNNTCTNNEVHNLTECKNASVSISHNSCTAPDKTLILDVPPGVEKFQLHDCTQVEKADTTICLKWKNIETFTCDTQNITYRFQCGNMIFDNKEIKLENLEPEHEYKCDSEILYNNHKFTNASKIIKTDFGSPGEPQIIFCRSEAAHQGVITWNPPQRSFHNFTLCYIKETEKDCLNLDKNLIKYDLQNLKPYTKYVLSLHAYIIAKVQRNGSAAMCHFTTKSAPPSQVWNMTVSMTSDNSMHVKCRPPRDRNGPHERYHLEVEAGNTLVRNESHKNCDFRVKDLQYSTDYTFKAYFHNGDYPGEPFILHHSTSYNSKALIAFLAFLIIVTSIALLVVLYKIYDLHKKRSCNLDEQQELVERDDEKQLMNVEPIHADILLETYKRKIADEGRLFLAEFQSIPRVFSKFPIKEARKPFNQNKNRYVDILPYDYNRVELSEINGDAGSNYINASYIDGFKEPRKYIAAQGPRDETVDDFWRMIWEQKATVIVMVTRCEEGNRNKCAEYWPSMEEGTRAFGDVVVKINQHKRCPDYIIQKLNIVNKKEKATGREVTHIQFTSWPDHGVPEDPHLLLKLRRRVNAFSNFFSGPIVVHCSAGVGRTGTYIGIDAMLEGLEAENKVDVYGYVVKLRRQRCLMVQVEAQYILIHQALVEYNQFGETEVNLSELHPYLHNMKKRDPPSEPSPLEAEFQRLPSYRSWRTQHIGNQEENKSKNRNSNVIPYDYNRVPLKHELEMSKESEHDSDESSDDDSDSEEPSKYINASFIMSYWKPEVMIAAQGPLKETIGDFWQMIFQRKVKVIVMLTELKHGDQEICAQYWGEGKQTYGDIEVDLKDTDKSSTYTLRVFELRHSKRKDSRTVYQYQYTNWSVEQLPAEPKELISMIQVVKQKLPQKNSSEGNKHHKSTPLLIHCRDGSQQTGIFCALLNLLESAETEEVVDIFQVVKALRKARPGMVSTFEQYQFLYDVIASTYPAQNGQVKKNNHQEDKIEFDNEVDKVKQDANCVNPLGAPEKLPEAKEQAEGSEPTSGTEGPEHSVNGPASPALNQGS

[4] = biological target: T3, Receptor-type tyrosine-protein phosphatase C (Homo sapiens) (UniProt P08575); assay: Compound was evaluated for inhibition of CD45 at a concentration of 500 uM)
T3 sequence (whole entry): T2 sequence (P08575 whole entry)

[5] = Compound was evaluated for 50% inhibition of PP2A, a serine/threonine phosphatase using uM)
[6] = biological target: T4, Tyrosine-protein phosphatase non-receptor type 1 (Homo sapiens) (UniProt P18031); assay: Compound was evaluated for inhibition of PTP1B at a concentration of 500 uM)
T4 sequence (whole entry): T1 sequence (P18031 whole entry)

[7] = Compound was evaluated for inhibition of PP2A at a concentration of 500 uM)
[8] = biological target: T3, Receptor-type tyrosine-protein phosphatase C (Homo sapiens); assay: Compound was evaluated for inhibition of CD45 protein-tyrosine phosphatase at a concentration of 500 uM)
[9] = biological target: T2, Receptor-type tyrosine-protein phosphatase C; assay: Compound was evaluated for 50% inhibition of CD45 protein-tyrosine phosphatase using uM)
[10] = biological target: T2, Receptor-type tyrosine-protein phosphatase C; assay: Compound was evaluated for inhibitory constant against CD45

Compound | Ki [1] [µM] | IC50 [2] [µM] | IC50 [3] [µM] | inhibition [4] [%] | IC50 [5] [µM] | inhibition [6] [%] | inhibition [7] [%] | inhibition [8] [%] | IC50 [9] [µM] | Ki [10] [µM]
O=P(O)(O)C(F)(F)c1cc(O)c2ccccc2c1 | 93 | – | – | – | – | – | – | – | – | –
O=P(O)(O)C(F)(F)c1ccc2cc(C(F)(F)P(=O)(O)O)ccc2c1 | – | 29 | – | – | 354 | 100 | 70 | 62 | > 100 | –
O=P(O)(O)C(F)(F)c1ccc2ccccc2c1 | 197 | 95 | > 1000 | 5 | 753 | 84 | 39 | – | – | –
O=P(O)(O)C(F)(F)c1ccc2c(C(F)(F)P(=O)(O)O)cccc2c1 | – | – | – | – | – | 89 | 75 | 70 | – | –
O=P(O)(O)C(F)(F)c1ccc2ccc(C(F)(F)P(=O)(O)O)cc2c1 | 16 | – | 180 | 64 | 306 | 100 | 70 | – | – | –

Second part, the compound after the results:

Ki [1] [µM] | IC50 [2] [µM] | IC50 [3] [µM] | inhibition [4] [%] | IC50 [5] [µM] | inhibition [6] [%] | inhibition [7] [%] | inhibition [8] [%] | IC50 [9] [µM] | Ki [10] [µM] | Compound
255 | 112 | > 1000 | 20 | 636 | 83 | 52 | – | – | – | O=P(O)(O)C(F)(F)c1cccc2ccccc12
– | – | – | – | – | 51 | 77 | 26 | – | – | O=P(O)(O)C(F)(F)c1cccc2c(C(F)(F)P(=O)(O)O)cccc12
– | 118 | 27 | – | 481 | 98 | 61 | 99 | – | 9 | O=P(O)(O)C(F)(F)c1ccc2cccc(C(F)(F)P(=O)(O)O)c2c1
– | 130 | – | – | – | – | – | – | 279 | – | O=P(O)(O)C(F)c1ccc2ccc(C(F)P(=O)(O)O)cc2c1 (configuration not stated)
– | > 500 | – | – | – | – | – | – | 500 | – | O=P(O)(O)Cc1ccc2ccc(CP(=O)(O)O)cc2c1
– | – | – | – | – | 81 | 66 | 78 | – | – | O=P(O)(O)C(F)(F)c1cc(C(F)(F)P(=O)(O)O)c2ccccc2c1
